Assay results reported in US20140045847A1, “CRYSTALLINE FORM OF A SALT OF A MORPHOLINO SULFONYL INDOLE DERIVATIVE AND A PROCESS FOR ITS PREPARATION” (PIRAMAL ENTERPRISES LIMITED, priority 2011, published 2014).

Tests used:
[1] = tested on: human tumor cell lines; details: mesenchymal, epithelial and hematopoietic tumor cell lines; Carboni et al. 2009; cited from earlier work
[2] = biological target: T1, pIGF-1R (Homo sapiens, UniProt P08069); test: IGF-1R autophosphorylation assay (Western blot), pIGF-1R; assay type: cell-based; details: 1 h treatment, IGF-1 50 ng/mL stimulation
T1 construct: endogenous in cells
Procedure: (§1) Cells were grown and maintained in a medium containing 10% FBS. Cells grown as subconfluent monolayer, were subjected to serum starvation by replacing the respective culture medium with plain medium (containing no serum) and incubated for about 16 h at 37° C. in 5% CO2 incubator. Serum starved cells were treated with compound I at different concentrations for 1 h at 37° C. in 5% CO2 incubator and stimulated with IGF-1 (50 ng/mL) for the last 5 minutes of treatment with Compound I. After stimulation cells were washed twice with cold 1×PBS, pH 7.2 and cell lysates were prepared using CelLytic™ M cell lysis reagent (Sigma) containing protease and phosphatase inhibitors. Estimation of the total protein content in each cell lysate was carried out using Bradford reagent. Equal amount of protein from each lysate was subjected to Sodium Dodecyl Sulphate-Polyacrylamide Gel Electrophoresis (SDS-PAGE) followed by Western blotting protocol using specific antibody to pIGF-1R, IGF-1Rβ, pAkt, Akt, Pp70S6, p70S6, Pp44/42, p44/42 and loading control, β-actin. Imaging was done with BIO-RAD Image-Lab Software. The band density was then estimated using the software Image J. From the band densities of the various proteins at different concentrations of Compound I, the IC50 concentrations for various proteins were calculated, and are enumerated in Table 3.

[3] = Stability of the solid form under stress conditions; assay type: physicochemical
[4] = tested on: Pp70S6; test: IGF-1R autophosphorylation assay (Western blot), Pp70S6; assay type: cell-based, human; details: 1 h treatment, IGF-1 50 ng/mL stimulation
Procedure: as §1

[5] = tested on: pAkt; test: IGF-1R autophosphorylation assay (Western blot), pAkt; assay type: cell-based, human; details: 1 h treatment, IGF-1 50 ng/mL stimulation
Procedure: as §1

[6] = tested on: SK-ES cells; test: Anti-proliferative assay (CellTiter-Glo), SK-ES; assay type: cell-based; details: Homo sapiens, 72 h, 100 ng/mL IGF-1 without FCS
Procedure: (§2) The cancer cell lines were seeded in triplicate (at density, from 3000-5000 cells/well depending on cell type) with 10% FCS in 180 μL of culture medium in tissue culture grade 96 well plates and allowed to recover for 24 h in humidified 5% CO2 incubator at 37±1° C. […] Compound I in crystalline form was used at concentration range of 0.1, 1, 3 and 10 μM and the plates were incubated for 72 h in humidified 5% CO2 incubator at 37±1° C. Control wells were treated with vehicle (DMSO). At the end of the incubation periods, the plates were assayed by the CellTiter-Glo® Luminescent Cell Viability assay protocol. Percent cytoxicity was calculated at the various drug concentrations. Graph for cytotoxicity vs. concentration of Compound I was plotted, and the IC50 values were determined
(§3) The CellTiter-Glo® Luminescent Cell Viability Assay is a homogeneous method to determine the number of viable cells in culture based on quantitation of the ATP present, which signals the presence of metabolically active cells. The amount of ATP is directly proportional to the number of cells present in culture
(§4) • 1. […] The luminescence is recorded using the POLARstar optima plate reader […] Values are IC50 in nM for different cell lines are provided for the crystalline form of Compound I in Table 4.

[7] = biological target: T2, intracellular kinase domain of human IGF-1R (GST fusion protein) (Homo sapiens, UniProt P08069); test: In vitro IGF-1R kinase assay (HTRF); assay type: biochemical; details: ATP 20 μM, IGFRK 0.25 nM, read-out: IC50 IGF-1R enzyme
T2 construct: intracellular kinase domain of human IGF-1R and expressed as GST fusion proteins; GST; made in house
Procedure: The in vitro kinase assays using IGF-1R kinase GST fusion proteins were conducted using a homogeneous time-resolved fluorescence (HTRF) format. Kinase reactions were carried out in a 384-well plate format in a final volume of 20 μL. The standard enzyme reaction buffer consisted of 50 mM Tris HCL (pH: 7.4), 1 mM EGTA, 10 mM MgCl2, 2 mM DTT, 0.01% Tween-20, IGF-1R/IR kinase enzyme, poly GT peptide substrate (Perkin Elmer [Ulight Glu-Tyr (4:1)]n) and ATP [concentration equivalent to Kmapp]. […] Europium cryptate—labeled antiphosphotyrosine antibody PY20 (5 μL) was added (final concentration of 2 nM) and the mixture was allowed to equilibrate for 1 hour at 23° C. followed by reading the plate in an Envision plate reader. […] The IC50 values for Compound I in both, the crystalline form and the amorphous form were determined by a four-parameter sigmoidal curve fit (Sigma plot or Graph pad) as represented in Table 2.
IGFRK enzyme used for the assay was intracellular kinase domain of human IGF-1R and expressed as GST fusion proteins using the baculovirus expression system and purified using glutathione—Sepharose column. […]

[8] = tested on: RD-ES cells; test: Anti-proliferative assay (CellTiter-Glo), RD-ES; assay type: cell-based; details: Homo sapiens, 72 h, 100 ng/mL IGF-1 without FCS
Procedure: as §2, §3, §4

[9] = tested on: A673 cells; test: Anti-proliferative assay (CellTiter-Glo), A673; assay type: cell-based; details: Homo sapiens; A673, 72 h, 100 ng/mL IGF-1 without FCS
Procedure: as §2, §3, §4

[10] = tested on: MCF7 cells; test: Anti-proliferative assay (CellTiter-Glo), MCF7; assay type: cell-based; details: Homo sapiens; MCF7, 72 h, 100 ng/mL IGF-1 without FCS
Procedure: as §2, §3, §4

[11] = tested on: HCT116 cells; test: Anti-proliferative assay (CellTiter-Glo), HCT116; assay type: cell-based; details: Homo sapiens, HCT-116; HCT116, 72 h, 100 ng/mL IGF-1 without FCS
Procedure: as §2, §3, §4

[12] = tested on: RD cells; test: Anti-proliferative assay (CellTiter-Glo), RD; assay type: cell-based; details: Homo sapiens, 72 h, 100 ng/mL IGF-1 without FCS
Procedure: as §2, §3, §4

[13] = Homo sapiens, A673, 1 h, A673 cells
[14] = MCF7 cells, listed as Crystalline form

T1 sequence (P08069 31-1367): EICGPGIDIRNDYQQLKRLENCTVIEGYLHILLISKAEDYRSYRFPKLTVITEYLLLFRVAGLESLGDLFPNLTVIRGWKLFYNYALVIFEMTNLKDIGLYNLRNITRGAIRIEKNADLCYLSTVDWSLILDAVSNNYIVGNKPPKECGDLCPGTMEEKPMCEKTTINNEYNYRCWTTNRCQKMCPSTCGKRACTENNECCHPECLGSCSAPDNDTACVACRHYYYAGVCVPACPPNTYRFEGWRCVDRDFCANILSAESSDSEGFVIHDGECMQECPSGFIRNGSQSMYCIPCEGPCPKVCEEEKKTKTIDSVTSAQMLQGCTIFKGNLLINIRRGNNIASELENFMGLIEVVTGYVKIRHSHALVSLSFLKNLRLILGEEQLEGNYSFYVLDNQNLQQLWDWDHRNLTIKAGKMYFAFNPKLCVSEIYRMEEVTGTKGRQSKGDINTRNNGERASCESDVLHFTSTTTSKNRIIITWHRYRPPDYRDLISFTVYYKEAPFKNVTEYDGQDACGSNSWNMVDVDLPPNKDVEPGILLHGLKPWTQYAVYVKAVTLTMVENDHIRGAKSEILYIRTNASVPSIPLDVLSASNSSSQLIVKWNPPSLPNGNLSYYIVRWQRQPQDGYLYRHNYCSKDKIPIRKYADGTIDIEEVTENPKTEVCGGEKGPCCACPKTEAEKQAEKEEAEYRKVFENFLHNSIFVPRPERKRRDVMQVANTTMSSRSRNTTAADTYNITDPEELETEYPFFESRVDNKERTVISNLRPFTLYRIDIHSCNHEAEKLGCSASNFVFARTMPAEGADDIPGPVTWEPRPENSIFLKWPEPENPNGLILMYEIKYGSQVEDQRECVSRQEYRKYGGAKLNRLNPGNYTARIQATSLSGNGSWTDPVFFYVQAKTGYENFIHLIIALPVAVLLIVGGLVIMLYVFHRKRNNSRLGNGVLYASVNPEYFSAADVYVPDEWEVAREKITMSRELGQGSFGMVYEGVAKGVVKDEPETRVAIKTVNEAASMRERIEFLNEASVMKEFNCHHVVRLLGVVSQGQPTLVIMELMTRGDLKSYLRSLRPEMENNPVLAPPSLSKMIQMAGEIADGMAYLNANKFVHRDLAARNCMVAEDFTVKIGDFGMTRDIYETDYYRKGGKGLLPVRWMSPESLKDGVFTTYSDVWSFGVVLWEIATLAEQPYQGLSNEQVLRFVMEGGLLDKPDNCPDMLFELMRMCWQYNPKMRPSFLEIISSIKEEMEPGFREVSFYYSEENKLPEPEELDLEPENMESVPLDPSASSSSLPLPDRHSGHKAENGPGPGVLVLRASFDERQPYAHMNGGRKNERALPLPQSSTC
T2 sequence (P08069 999-1274 limits assumed): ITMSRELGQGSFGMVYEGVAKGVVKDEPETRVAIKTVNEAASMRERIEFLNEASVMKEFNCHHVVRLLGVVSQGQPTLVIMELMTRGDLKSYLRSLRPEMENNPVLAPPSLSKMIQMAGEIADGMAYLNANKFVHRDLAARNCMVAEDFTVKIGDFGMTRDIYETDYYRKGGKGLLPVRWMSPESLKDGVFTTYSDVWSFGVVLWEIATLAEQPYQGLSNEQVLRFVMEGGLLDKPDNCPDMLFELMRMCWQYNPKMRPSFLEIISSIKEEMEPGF

For `C[C@@]1(C(=O)Nc2ccc(F)nc2)CCCN1c1nc(Nc2cc(C3CC3)n[nH]2)c2cccn2n1` [BMS-754807], the “inhibition of growth of human tumor types in vitro” value [1] is given as “effectively inhibits the growth”.

For `CCOC(=O)N1CCC(Nc2cc(Cl)cc3c(S(=O)(=O)N4CCO[C@H](COc5ccccc5)C4)c(C(N)=O)[nH]c23)CC1` [Compound I (amorphous form), (S)-ethyl 4-(2-carbamoyl-5-chloro-3-(2-(phenoxymethyl)morpholinosulfonyl)-1H-indol-7-ylamino)piperidine-1-carboxylate methane sulfonate], the IC50 ([2]; A673 cells) was < 10 nM, the IC50 ([2]; Colo205 cells) was 400 nM and the IC50 ([2]; MCF7 cells) was 15 nM. The “stability under stress conditions” value ([3]; listed as amorphous form of Compound I) was “unstable under stress conditions”, the IC50 [4, 13] was 450 nM and the IC50 ([4]; Homo sapiens, MCF7, 1 h, MCF7 cells) was 680 nM. It also gave an IC50 ([5]; Colo205 cells, listed as Amorphous form) of 620 nM, an IC50 [5, 13] of 260 nM and an IC50 ([5]; MCF7 cells, listed as Amorphous form) of 380 nM.

Work on `CCOC(=O)N1CCC(Nc2cc(Cl)cc3c(S(=O)(=O)N4CCO[C@H](COc5ccccc5)C4)c(C(N)=O)[nH]c23)CC1` [Compound I (crystalline form), (S)-ethyl 4-(2-carbamoyl-5-chloro-3-(2-(phenoxymethyl)morpholinosulfonyl)-1H-indol-7-ylamino)piperidine-1-carboxylate methane sulfonate] yielded an IC50 [6] of 450 nM, an IC50 [7] of 22 nM and an IC50 ([2]; A673 cells) of 30 nM. For the same molecule, the IC50 ([2]; Colo205 cells) was 46 nM, the IC50 [8] was 250 nM and the “stability under stress conditions” value ([3]; listed as crystalline form of Compound I) was “stable with reproducible pharmacological activity even under stress conditions”. The IC50 [4, 14] was 460 nM, the IC50 [9] was 1800 nM and the IC50 [10] was 160 nM. It also gave an IC50 [11] of 900 nM, an IC50 ([5]; A673 cells) of 220 nM and an IC50 ([5]; Colo205 cells, listed as Crystalline form) of 23 nM. The IC50 [5, 14] was 50 nM and the IC50 [12] was 1400 nM.
